Assay results: patent US5308608A, “Photosensitizing Diels-Alder porphyrin derivatives” (University of British Columbia, priority 1992, dated 1994)

Test system: MI-S
Assay: In vitro photosensitizing cytotoxicity (LD50) on cell line MI-S, 700-820 nm light for 30 minutes
Assay type: cell-based
Details: eosin-Y exclusion or tritium-labeled thymidine uptake
Method: Various invention compounds were assayed in vitro using either cell line P815 or MI-S as model systems to test their photosensitizing activity. In the standard protocol, various concentrations of test compounds were added to washed suspensions of cells from cultures of the target cells and the mixtures were then irradiated using 700-820 nm light for 30 minutes. The results were assayed by determining cytotoxicity using direct counting using eosin-Y exclusion, a standard procedure for differentiating living from dead cells.
In other determinations conducted as above, the cells recovered from light exposure were assayed for viability by incubating them for 18 hours in 10 mCi/ml tritium-labeled thymidine according to the standard procedure whereby thymidine incorporation is equated with viability. The cells were harvested and radioactivity uptake was measured by a scintillation counter.

CCc1c(C)c2cc3nc(cc4[nH]c(cc5nc(cc1[nH]2)C1(C)C5=CCC2C(=O)N(c5ccccc5)C(=O)C21)c(C)c4CC)C1(C)C3=CCC2C(=O)N(c3ccccc3)C(=O)C21 (stereo not shown) [Compound 12]
LD50: 100 ng
